For one compound, IC50 results are on record in BindingDB's records for patent US20250170104 (Helmholtz-Zentrum Fur Infektionsforschung, 2025).

For the experiment, the target named is Elastase (Pseudomonas aeruginosa (strain ATCC 15692 / DSM 22644 / CIP 104116 / JCM 14847 / LMG 12228 / 1C / PRS 101 / PAO1), UniProt P14756). In words: In Vitro LasB Activity Assay. How it is done:
Fluorescence intensity was measured for 60 min at 37° C. in black 384-well microtiter plates (Greiner BioOne, Kremsm nster, Austria) using a CLARIOstar microplate reader (BMG Labtech, Ortenberg, Germany) with an excitation wavelength of […] and an emission wavelength of 415±20 nm. The assay was performed in a final volume of 50 μL of assay buffer (50 mM Tris, pH 7.2, 2.5 mM CaCl2), 0.075% Pluronic F-127, 5% DMSO) containing LasB at a final concentration of […] 0.3 nM and the substrate at 150 μM. Before substrate addition, compounds were preincubated with the enzyme at 37° C. for 15 min. Experiments were performed in duplicates and repeated for at least two times. Blank controls without enzyme were performed. After blank subtraction, the slope of samples containing inhibitors (v) was divided by the slope of a simultaneously started uninhibited enzymatic reaction (v0).

Chain of Elastase (P14756 whole entry): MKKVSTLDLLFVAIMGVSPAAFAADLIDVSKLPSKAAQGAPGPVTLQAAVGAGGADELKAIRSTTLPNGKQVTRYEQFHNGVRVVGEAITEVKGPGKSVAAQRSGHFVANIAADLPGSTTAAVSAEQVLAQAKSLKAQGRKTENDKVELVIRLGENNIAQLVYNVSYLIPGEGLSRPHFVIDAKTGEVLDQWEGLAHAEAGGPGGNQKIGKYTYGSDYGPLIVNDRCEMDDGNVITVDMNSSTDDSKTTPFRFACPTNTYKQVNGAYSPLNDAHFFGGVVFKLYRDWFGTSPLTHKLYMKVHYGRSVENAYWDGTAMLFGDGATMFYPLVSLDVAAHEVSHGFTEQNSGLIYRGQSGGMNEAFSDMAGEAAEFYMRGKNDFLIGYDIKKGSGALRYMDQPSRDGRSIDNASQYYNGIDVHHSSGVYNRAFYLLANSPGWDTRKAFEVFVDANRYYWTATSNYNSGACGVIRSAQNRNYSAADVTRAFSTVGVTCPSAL

By IC50 is commonly meant the concentration at which inhibition is half-maximal. High values mean weaker potency in that assay, low ones greater potency in that assay. Regarding `CC(C)CC(C(=O)NO)C(=O)Nc1ccc(Cn2cc(CNS(=O)(=O)c3ccc(C(=O)O)cc3)nn2)cc1` (stereo unspecified) [US20250170104, Compound 209], the IC50 was determined as 44.6 nM.
